Source: article PMC7176276, “Elucidating the possible mechanism of action of some pathogen box compounds against Leishmania donovani” (PLoS Neglected Tropical Diseases, 2020)

Assays:
[1] = system: Leishmania donovani promastigotes; experiment: Growth kinetics assay against promastigotes; format: cell-based; conditions: for incubation time after which decline in the parasite population was observed: promastigotes, 1μg/mL
Protocol: Promastigotes of L. donovani (2 x 10^4 cells) were incubated at 25° C in the presence of the test compounds (at 1μg/mL for each compound) in M199 containing 10% FBS (complete medium). Promastigotes treated with amphotericin B (0–50 μg/ml) served as positive control while untreated promastigotes in the medium alone served as negative control. Aliquots from treated and control parasites were diluted in 0.02 M PBS (pH 7.2) and the viable cells counted daily for 5 days using a Neubauer haemocytometer and a phase-contrast microscope under a 40x objective.

[2] = system: RAW 264.7 macrophage cell line; experiment: Cytotoxicity test against RAW macrophage cell line using MTT assay; format: cell-based, murine; conditions: RAW 264.7, 48 hours
Protocol: A murine macrophage cell line (RAW 264.7) was cultured in DMEM medium supplemented with penicillin G sodium (100 μg/mL), streptomycin sulfate (100 μg/mL) and 10% FBS. Macrophages at a density of 1 x 10^6 cells/mL were incubated at different concentrations (ranging from 0.39–100 μg/mL) of the compounds for 48 hours in a CO2 incubator (5% CO2, 37° C). Macrophages without any treatment were taken as negative control and amphotericin B was used as positive control. At the termination of the assay, MTT was added and incubated for an additional 3 hours. Acidified isopropanol was added to the set-up to solubilize the formazan crystals formed by the viable cells. The intensity of formazan formation was read on an Elisa plate reader (Varioskan Lux Elisa microplate reader, Thermo Fischer Scientific, USA) at 570 nm. The 50% cytotoxic concentrations (CC50) of the compounds were determined by analysis of dose-response curves. Selectivity index or therapeutic index was calculated as a ratio of CC50 RAW 264.7/IC50 L. donovani promastigotes or amastigotes.

[3] = system: Leishmania donovani promastigotes; experiment: In vitro antileishmanial activity assay, promastigotes (MTT); format: cell-based; conditions: for Therapeutic Index (TC50/IC50) promastigotes: TC50 RAW 264.7 / IC50 promastigotes
[4] = system: human red blood cells; experiment: Haemolysis assay against the human red blood cells; format: cell-based; conditions: 2% haematocrit, 3 hours
Protocol: The haemolytic effect of the compounds were tested against the human red blood cells at a density of 2% haematocrit. The method described by Kazi et al was used with slight modification. In this study, human red blood cells were used, the respective test compounds were incubated for 3 hours and 1% triton X100 served as the positive control. At the end of the assay the supernatant was read on a microtiter plate reader (Varioskan Lux Elisa microplate reader, Thermo Fischer Scientific, USA) at 415 nm. The 50% haemolytic concentration (HC50) of the compounds were determined by analysis of dose-response curves.

[5] = system: Leishmania donovani promastigotes; experiment: Growth reversibility assay (cytocidal/cytostatic) against promastigotes; format: cell-based; conditions: for cytocidal or cytostatic effect: growth reversibility profile after drug withdrawal; for growth reversal / reversibility of growth inhibition: promastigotes washed after 5 days of treatment; for growth reversal: regrown 4 days in fresh medium; for reversibility of growth inhibition: regrown 4 days
Protocol: However, to confirm the cytocidal or cytostatic effect of the test compounds, the treated and untreated parasites after 5 days of incubation were washed twice with fresh M199 and then resuspended in complete M199 media and allowed to grow further at 25° C; the viable promastigotes were enumerated microscopically after 4 days.

[6] = system: Leishmania donovani promastigotes; experiment: Morphological and mitochondrion integrity analysis by fluorescence microscopy (DAPI, MitoTracker); format: cell-based; conditions: 1μg/mL; for parasite cells with degeneration/disintegration of DNA (nucleus, kinetoplast) and mitochondrion: 72 hours
Protocol: Leishmania donovani promastigotes (2 x 10^4 cells) were treated with the test compounds at 1μg/mL (point concentration). They were then incubated for 24 hours and 72 hours in order to study their morphological changes and to see the changes in their mitochondrial integrity using DAPI and MitoTracker red dye respectively. The assay was performed using the methods described by Amisigo et al with slight modifications. Here the Mitotracker red dye was added to the pelleted promastigote cells at a concentration of 100 nM, resuspended in 1 mL of FBS-free M199 media with 1% BSA (Bovine Serum Albumin) and incubated for 30 minutes.

[7] = system: Leishmania donovani amastigotes; experiment: In vitro antileishmanial activity assay, macrophage-amastigotes model (MTT); format: cell-based; conditions: TC50 RAW 264.7 / IC50 amastigotes
Protocol: Leishmania donovani (MHOM/SD/62/1S strain) was a kind gift from Dr. Yamthe Lauve (Bei Resources NIAID, NIH). The promastigotes were cultured in M199 medium supplemented with 10% heat-inactivated fetal bovine serum (FBS), penicillin G sodium (100 μg/mL) and streptomycin sulfate (100 μg/mL) at 25° C and subcultured every 72 hours in the same medium at a mean density of 1 x 10^5 cells/mL [9]. The murine macrophage cell line RAW 264.7 (RIKEN BioResource Centre Cell Bank, Japan) were kindly provided by Professor Regina Appiah-Opong of the Clinical Pathology Department, Noguchi Memorial Institute for Medical Research, Ghana. RAW 264.7 were grown at 37° C in DMEM medium (pH 7.4) supplemented with 10% heat-inactivated FBS for 48–72 hours in 5% CO2 and subcultured in fresh DMEM medium at a mean density of 1 x 10^5 cells/mL.
Amphotericin B was used as a reference antileishmanial drug (positive control). RAW 264.7 macrophage cells were infected with promastigotes at a density of 1:10 ratio for 12 hours, after which the non-phagocytosed promastigotes were discarded (by aspirating them alongside the media) and the amastigote cells within the macrophages were treated with the compounds (in fresh complete media) to test their growth inhibitory activity using the method described previously. Parasite viability was assessed using the 3-(4,5-Dimethylthiazol-2-yl)-2,5-diphenyltetrazolium bromide (MTT) method in which the rate of formazan crystal formation was used as an index of cell viability as described by Mosmann. Fluorescence was measured with a Varioskan Lux Elisa microplate reader (Thermo Fischer Scientific, USA) at a wavelength of 570 nm. The fluorescence counts were plotted against the drug concentrations and the 50% inhibitory concentration (IC50) was determined by analysis of the dose-response curves using excel.

[8] = system: Leishmania donovani promastigotes; experiment: Apoptotic and necrotic potentials, Annexin V-FITC/PI flow cytometry; format: cell-based; conditions: 2x IC50, 24 hours; far less than in the untreated cells
Protocol: Briefly, treated promastigote cells were washed twice with cold 1x PBS and then resuspended in 1x binding buffer at a cell density of 1 x 10^6 cells/mL. To a 100 μL of the suspended cells, 5 μL of Annexin V-FITC and 5 μL of Propidium Iodide (PI) were added. The mixture was gently vortexed and allowed to incubate for 15 minutes at room temperature (25°C) in the dark. To the set-up, 400 μL of 1x binding buffer was added and the assay was read by flow cytometry (BD LSR Fortessa X-20 analyzer BD Biosciences, San Jose, CA 95131 USA) and the results analyzed using FlowJo version 10 software.

[9] = system: Leishmania donovani amastigote; design: method as in PMID 25690568; conditions: earlier report ref 18; cited from earlier work
[10] = system: L. major; design: method as in PMID 25690568; conditions: earlier report ref 18; cited from earlier work
[11] = system: Leishmania donovani promastigote; design: method as in PMID 25690568; conditions: earlier report ref 18; cited from earlier work
[12] = system: Leishmania donovani promastigotes; experiment: Cell cycle progression analysis by flow cytometry; format: cell-based; conditions: 2x IC50, 24 hours; for change in the number of cells at the G2/M phase: versus untreated
Protocol: Guava Cell Cycle Reagent (catalog No. 4500–0220) was used to stain the cells and the number of cells in G0/G1, S and G2/M phases were determined. Briefly, treated and untreated cells were pelleted and fixed in 70% ice-cold ethanol for an hour at -20°C, the suspended cells were then pelleted by centrifugation at 1500 rpm for 10 minutes. The supernatants were discarded, and the pelleted cells were washed twice with 1X PBS to ensure total removal of the ethanol. To a 200 μL of the cell pellets, a 200 μL of the Gauva Cell Cycle Reagent was added and incubated at room temperature (25°C) for 30 minutes in the dark. Cell distribution at the distinct cell cycle phases were measured using flow cytometer (BD LSR Fortessa X-20 analyzer BD Biosciences San Jose, CA 95131 USA). Data generated were analyzed using the FlowJo V10 software.

[13] = system: L. infantum; design: method as in PMID 25690568; conditions: earlier report ref 18; cited from earlier work

Structure (SMILES)	TC50(μM)±SD RAW [2]	Therapeutic Index (TC50/IC50) promastigotes [3]	HC50 (50% haemolytic concentration) [4]	cytocidal or cytostatic effect [5]	growth reversal [5]	incubation time after which decline in the parasite population was observed [1]	parasite cells with degeneration/disintegration of DNA (nucleus, kinetoplast) and mitochondrion [6]	Therapeutic Index (TC50/IC50) amastigotes [7]	apoptosis and necrosis of promastigotes [8]	reversibility of growth inhibition [5]	cells at the S phase [12]	change in the number of cells at the G2/M phase [12]	parasite cells showing no obvious DNA and mitochondrion abnormality ([6]; 24 hours)	other results
C[C@@H]1[C@H](O)[C@@H](C)/C=C/C=C/C=C/C=C/C=C/C=C/C=C/[C@H](O[C@@H]2O[C@H](C)[C@@H](O)[C@H](N)[C@@H]2O)C[C@@H]2O[C@](O)(C[C@@H](O)C[C@@H](O)[C@H](O)CC[C@@H](O)C[C@@H](O)CC(=O)O[C@H]1C)C[C@H](O)[C@H]2C(=O)O [Amphotericin B, amphotericin B, reference compound]	15.75 ± 0.03 µM	3.0												effect on growth of promastigotes (growth kinetics) ([1]; viable cells counted daily for 5 days, compared with untreated control): no viable cells observed after 24 hours; IC50 ([3]; Leishmania donovani, 96 h, promastigotes, 4 days at 25° C, MTT, mean ±SD of three experiments): 5.3 ± 0.03 µM
CNC(=O)C1Cc2ccccc2N1C(=O)Cc1ccc(F)cc1 (centres unmarked) [MMV188296]		914	>100 µg/mL	cytostatic	56.5%	48 h	more than 90%	237						parasite population with loss in mitochondrion integrity ([6]; 24 hours): 40%
CC(C)(C)OC(=O)N1CCN(c2[nH]nnc2-c2ccc(Oc3ccccc3)cc2)CC1 [MMV676057]		432	>100 µg/mL	cytocidal		48 h	about 85%	16	slight apoptosis and necrosis	not reversible	23%	no significant change	About 70%	IC50 [9]: > 10 µM; IC50 [10]: 13 µM; IC50 [11]: 1.3 µM; cells at the G0-G1 phase ([12]; untreated 30%): 23%; IC50 [13]: 10.2 µM
Cc1nn2c(=O)c3c([nH]c2c1-c1ccc(Cl)cc1)CCCC3 [MMV688776]	50 ± 0.02 µM	19	>100 µg/mL	cytostatic	57.9%	24 h	About 70%	1					About 70%	
CCc1nn(C)c(C(=O)NCc2ccc(Oc3ccc(C)cc3)cc2)c1Cl [MMV688934]		416	>100 µg/mL	cytostatic	32.3%	24 h	more than 90%	453						promastigotes showing enlargement of the nucleus and kinetoplast with the mitochondria losing its normal shape ([6]; 24 hours): 70%
CC(C)(C)C(O)C(Oc1ccc(-c2ccccc2)cc1)n1cncn1 (centres unmarked) [MMV688942]		43	>100 µg/mL	cytocidal		48 h	85%	16	slight apoptosis and necrosis	not reversible	28%	no significant change		parasites showing loss of kinetoplast ([6]; 24 hours): about 30%
